Test results published in paper PMC5218480 (PLoS ONE, 2017).

System: MV-4-11 cells
Assay: Gene expression microarray analysis (Affymetrix PrimeView) and GSEA
Assay type: cell-based, human
Parameters: RFU PODN (11730768_x_at) / Fold change /veh PODN (11730768_x_at) / RFU LINC00158 (11744669_a_at) / Fold change /veh LINC00158 (11744669_a_at) / RFU DUSP10 (11751237_a_at) / Fold change /veh DUSP10 (11751237_a_at) / RFU ID3 (11757404_x_at) / Fold change /veh ID3 (11757404_x_at) / RFU PLEKHG5 (11737974_s_at) / Fold change /veh PLEKHG5 (11737974_s_at) / RFU LRRC4B (11730491_at) / Fold change /veh LRRC4B (11730491_at) / RFU GIMAP4 (11747438_a_at) / Fold change /veh GIMAP4 (11747438_a_at) / RFU KRT8 (11758183_x_at) / Fold change /veh KRT8 (11758183_x_at) / RFU CNN1 (11734310_a_at) / Fold change /veh CNN1 (11734310_a_at) / RFU VPS37D (11726825_at) / Fold change /veh VPS37D (11726825_at) / RFU C10orf10 (11716522_x_at) / Fold change /veh C10orf10 (11716522_x_at) / RFU KIR2DL2 /// KIR2DL4 /// KIR2DL5A /// KIR2DL5B /// KIR2DS1 /// KIR2DS2 /// KIR2DS3 /// KIR2DS4 /// KIR3DL3 /// KIR3DL3 /// KIR3DS1 (11738374_at) / Fold change /veh KIR2DL2 /// KIR2DL4 /// KIR2DL5A /// KIR2DL5B /// KIR2DS1 /// KIR2DS2 /// KIR2DS3 /// KIR2DS4 /// KIR3DL3 /// KIR3DL3 /// KIR3DS1 (11738374_at) / RFU C1QL1 (11718748_at) / Fold change /veh C1QL1 (11718748_at) / RFU TMPRSS4 (11747572_a_at) / Fold change /veh TMPRSS4 (11747572_a_at) / RFU HAMP (11756126_x_at) / Fold change /veh HAMP (11756126_x_at) / RFU RNFT2 (11725882_a_at) / Fold change /veh RNFT2 (11725882_a_at) / RFU NR4A2 (11747474_a_at) / Fold change /veh NR4A2 (11747474_a_at) / RFU ABCC12 (11746883_a_at) / Fold change /veh ABCC12 (11746883_a_at) / RFU TMEM136 (11760407_x_at) / Fold change /veh TMEM136 (11760407_x_at) / RFU CLDN22 /// WWC2 (11732394_at) / Fold change /veh CLDN22 /// WWC2 (11732394_at) / RFU HLA-DPB1 (11760878_x_at) / Fold change /veh HLA-DPB1 (11760878_x_at) / RFU SPINT1 (11716480_a_at) / Fold change /veh SPINT1 (11716480_a_at) / RFU GAP43 (11754022_s_at) / Fold change /veh GAP43 (11754022_s_at) / RFU A4GNT (11735810_at) / Fold change /veh A4GNT (11735810_at) / RFU PRB3 (11715151_x_at) / Fold change /veh PRB3 (11715151_x_at) / RFU TUBB4B (11761932_at) / Fold change /veh TUBB4B (11761932_at) / RFU CAPN14 (11732068_a_at) / Fold change /veh CAPN14 (11732068_a_at) / RFU TMCC2 (11721928_a_at) / Fold change /veh TMCC2 (11721928_a_at) / RFU IRGQ (11745062_a_at) / Fold change /veh IRGQ (11745062_a_at) / RFU FAM174B (11720279_a_at) / Fold change /veh FAM174B (11720279_a_at) / RFU TMPRSS4 (11748680_a_at) / Fold change /veh TMPRSS4 (11748680_a_at) / RFU FAM212B (11763350_a_at) / Fold change /veh FAM212B (11763350_a_at) / RFU PLEKHG5 (11743358_a_at) / Fold change /veh PLEKHG5 (11743358_a_at) / RFU ZSCAN30 (11745921_a_at) / Fold change /veh ZSCAN30 (11745921_a_at) / RFU CMKLR1 (11741424_a_at) / Fold change /veh CMKLR1 (11741424_a_at) / RFU LOC101060620 /// MAPK8IP1 (11723275_at) / Fold change /veh LOC101060620 /// MAPK8IP1 (11723275_at) / RFU SPTSSB (11747773_x_at) / Fold change /veh SPTSSB (11747773_x_at) / RFU PRSS12 (11739890_at) / Fold change /veh PRSS12 (11739890_at) / RFU BIN1 (11741810_x_at) / Fold change /veh BIN1 (11741810_x_at) / RFU WNT11 (11732464_a_at) / Fold change /veh WNT11 (11732464_a_at) / RFU C10orf10 (11716521_a_at) / Fold change /veh C10orf10 (11716521_a_at) / RFU C5orf56 (11738089_at) / Fold change /veh C5orf56 (11738089_at) / RFU CYB561 (11721691_x_at) / Fold change /veh CYB561 (11721691_x_at) / RFU ANKRD19P (11752326_a_at) / Fold change /veh ANKRD19P (11752326_a_at) / RFU OR2T12 /// OR2T33 /// OR2T8 (11738714_s_at) / Fold change /veh OR2T12 /// OR2T33 /// OR2T8 (11738714_s_at) / RFU VCAN (11748164_a_at) / Fold change /veh VCAN (11748164_a_at) / RFU JSRP1 (11732532_at) / Fold change /veh JSRP1 (11732532_at) / RFU KRTAP10-11 (11738290_x_at) / Fold change /veh KRTAP10-11 (11738290_x_at) / RFU MYO3A (11730013_a_at) / Fold change /veh MYO3A (11730013_a_at) / RFU EBF3 (11725865_a_at) / Fold change /veh EBF3 (11725865_a_at) / RFU CAMK2N1 (11719241_x_at) / Fold change /veh CAMK2N1 (11719241_x_at) / RFU C5orf56 (11738088_a_at) / Fold change /veh C5orf56 (11738088_a_at) / RFU OLFML3 (11715873_a_at) / Fold change /veh OLFML3 (11715873_a_at) / RFU LOC100653217 /// NTM (11731650_a_at) / Fold change /veh LOC100653217 /// NTM (11731650_a_at) / RFU MAPK11 (11762145_a_at) / Fold change /veh MAPK11 (11762145_a_at) / RFU FIZ1 (11724087_x_at) / Fold change /veh FIZ1 (11724087_x_at) / RFU OASL (11726364_x_at) / Fold change /veh OASL (11726364_x_at) / RFU SOX15 (11748057_x_at) / Fold change /veh SOX15 (11748057_x_at) / RFU CD79A (11719716_a_at) / Fold change /veh CD79A (11719716_a_at) / RFU HIST1H1D (11736915_at) / Fold change /veh HIST1H1D (11736915_at) / RFU CASKIN2 (11723855_a_at) / Fold change /veh CASKIN2 (11723855_a_at) / RFU LOC730098 (11760151_x_at) / Fold change /veh LOC730098 (11760151_x_at) / RFU OR4N2 (11742367_at) / Fold change /veh OR4N2 (11742367_at) / RFU PRRT2 (11749266_a_at) / Fold change /veh PRRT2 (11749266_a_at) / RFU SNX32 (11753110_a_at) / Fold change /veh SNX32 (11753110_a_at) / RFU CDHR5 (11726645_a_at) / Fold change /veh CDHR5 (11726645_a_at) / RFU RCAN1 (11760418_a_at) / Fold change /veh RCAN1 (11760418_a_at) / RFU FAM167A (11723789_a_at) / Fold change /veh FAM167A (11723789_a_at) / RFU FAM26E (11764081_at) / Fold change /veh FAM26E (11764081_at) / RFU ISYNA1 (11749810_s_at) / Fold change /veh ISYNA1 (11749810_s_at) / RFU ACY1 (11761880_at) / Fold change /veh ACY1 (11761880_at) / RFU 11764098_at / Fold change /veh 11764098_at / RFU SAMD14 (11745864_x_at) / Fold change /veh SAMD14 (11745864_x_at) / RFU NPB (11741838_a_at) / Fold change /veh NPB (11741838_a_at) / RFU TMPRSS6 (11731388_a_at) / Fold change /veh TMPRSS6 (11731388_a_at) / RFU KRTAP10-2 (11738614_at) / Fold change /veh KRTAP10-2 (11738614_at) / RFU ARHGAP8 /// PRR5-ARHGAP8 (11727945_x_at) / Fold change /veh ARHGAP8 /// PRR5-ARHGAP8 (11727945_x_at) / RFU KRTAP5-7 /// NADSYN1 (11734609_at) / Fold change /veh KRTAP5-7 /// NADSYN1 (11734609_at) / RFU RASL12 (11751679_a_at) / Fold change /veh RASL12 (11751679_a_at) / RFU CDKN2B (11736163_a_at) / Fold change /veh CDKN2B (11736163_a_at) / RFU PRF1 (11729649_at) / Fold change /veh PRF1 (11729649_at) / RFU, ZNF638 /// ZNF638-IT1 / Fold change vs veh, ZNF638 /// ZNF638-IT1 / RFU, PANK3 / Fold change vs veh, PANK3 / RFU, SH3YL1 / Fold change vs veh, SH3YL1 / RFU, ZEB2 / Fold change vs veh, ZEB2 / RFU, NRIP1 / Fold change vs veh, NRIP1 / RFU, PTTG1IP / Fold change vs veh, PTTG1IP / RFU, CAPN2 / Fold change vs veh, CAPN2 / RFU, MED14 / Fold change vs veh, MED14 / RFU, SNORA58 / Fold change vs veh, SNORA58 / RFU, C1orf63 / Fold change vs veh, C1orf63 / RFU, LRRFIP1 / Fold change vs veh, LRRFIP1 / RFU, NDUFAF7 / Fold change vs veh, NDUFAF7 / RFU, SLC12A2 / Fold change vs veh, SLC12A2 / RFU, IBTK / Fold change vs veh, IBTK / RFU, ESF1 / Fold change vs veh, ESF1 / Fold change vs veh, TMEM50B / RFU, TAOK1 / Fold change vs veh, TAOK1 / RFU, ACBD3 / Fold change vs veh, ACBD3 / RFU, TMA16 / Fold change vs veh, TMA16 / RFU, RWDD3 / Fold change vs veh, RWDD3 / RFU, BCAT1 / Fold change vs veh, BCAT1 / RFU, EDEM3 / Fold change vs veh, EDEM3 / RFU, TMEM33 / Fold change vs veh, TMEM33 / RFU, WDR75 / Fold change vs veh, WDR75 / RFU, AHCTF1 / Fold change vs veh, AHCTF1 / RFU, TFRC / Fold change vs veh, TFRC / RFU, ZDHHC17 / Fold change vs veh, ZDHHC17 / RFU, NOM1 / Fold change vs veh, NOM1 / RFU, ARL8B / Fold change vs veh, ARL8B / RFU, ZBTB11 / Fold change vs veh, ZBTB11 / RFU, TAMM41 / Fold change vs veh, TAMM41 / RFU, KIAA1704 /// LOC100996395 / Fold change vs veh, KIAA1704 /// LOC100996395 / RFU, ING1 / Fold change vs veh, ING1 / RFU, TRMT61B / Fold change vs veh, TRMT61B / RFU, FUBP3 / Fold change vs veh, FUBP3 / RFU, TP53 / Fold change vs veh, TP53 / RFU, TNKS2 / Fold change vs veh, TNKS2 / RFU, ZFP14 / Fold change vs veh, ZFP14 / RFU, ACTR2 / Fold change vs veh, ACTR2 / RFU, PPP3R1 / Fold change vs veh, PPP3R1 / RFU, PIK3R1 / Fold change vs veh, PIK3R1 / RFU, HNRNPA1 / Fold change vs veh, HNRNPA1 / RFU, RNF170 / Fold change vs veh, RNF170 / RFU, ZNF28 / Fold change vs veh, ZNF28 / RFU, RNGTT / Fold change vs veh, RNGTT / RFU, OGT / Fold change vs veh, OGT / RFU, BRD1 / Fold change vs veh, BRD1 / RFU, MARS / Fold change vs veh, MARS / RFU, ZNF655 / Fold change vs veh, ZNF655 / RFU, FAHD1 / Fold change vs veh, FAHD1 / RFU, BDP1 / Fold change vs veh, BDP1 / RFU, LRRCC1 / Fold change vs veh, LRRCC1 / RFU, ARID1A / Fold change vs veh, ARID1A / RFU, ZNF146 / Fold change vs veh, ZNF146 / RFU, ZNF330 / Fold change vs veh, ZNF330 / RFU, GPN3 / Fold change vs veh, GPN3 / RFU, C9orf123 / Fold change vs veh, C9orf123 / RFU, N4BP2L2 / Fold change vs veh, N4BP2L2 / RFU, ARFIP1 / Fold change vs veh, ARFIP1 / RFU, FAM179B / Fold change vs veh, FAM179B / RFU, BCL10 / Fold change vs veh, BCL10 / RFU, UHRF1BP1L / Fold change vs veh, UHRF1BP1L / RFU, BET1 / Fold change vs veh, BET1 / RFU, CNOT2 / Fold change vs veh, CNOT2 / RFU, ZNF268 / Fold change vs veh, ZNF268 / Fold change vs veh, ZNF507 / RFU, DGCR2 / Fold change vs veh, DGCR2 / RFU, WDSUB1 / Fold change vs veh, WDSUB1 / Fold change vs veh, HSP90B1 /// MIR3652 / RFU, ADSS / Fold change vs veh, ADSS / RFU, GK / Fold change vs veh, GK / RFU, ZNF148 / Fold change vs veh, ZNF148 / RFU, TAF9 / Fold change vs veh, TAF9 / RFU, SLC1A5 / Fold change vs veh, SLC1A5 / RFU, SLMO2 / Fold change vs veh, SLMO2 / RFU, ABCC4 / Fold change vs veh, ABCC4 / RFU, LOC101060439 /// RAP1B / Fold change vs veh, LOC101060439 /// RAP1B / RFU, RFX7 / Fold change vs veh, RFX7 / RFU, GTPBP10 / Fold change vs veh, GTPBP10 / RFU, CNEP1R1 / Fold change vs veh, CNEP1R1 / RFU, BIVM-ERCC5 /// ERCC5 / Fold change vs veh, BIVM-ERCC5 /// ERCC5 / RFU, ILF3 / Fold change vs veh, ILF3 / RFU 11762660_at / Fold change /veh 11762660_at / RFU VCAN (11757783_s_at) / Fold change /veh VCAN (11757783_s_at) / RFU DDX43 (11728927_at) / Fold change /veh DDX43 (11728927_at) / RFU KRT8 (11758188_x_at) / Fold change /veh KRT8 (11758188_x_at) / RFU NKD1 (11759106_at) / Fold change /veh NKD1 (11759106_at) / RFU SRD5A1 (11742802_a_at) / Fold change /veh SRD5A1 (11742802_a_at) / RFU TPSAB1 /// TPSB2 (11721975_s_at) / Fold change /veh TPSAB1 /// TPSB2 (11721975_s_at) / RFU GSTM3 (11746129_a_at) / Fold change /veh GSTM3 (11746129_a_at) / RFU IL23R (11737362_x_at) / Fold change /veh IL23R (11737362_x_at) / RFU TMEM51 (11727254_a_at) / Fold change /veh TMEM51 (11727254_a_at) / RFU PIWIL2 (11732686_x_at) / Fold change /veh PIWIL2 (11732686_x_at) / RFU ORM1 (11744905_x_at) / Fold change /veh ORM1 (11744905_x_at) / RFU CCDC152 (11743942_at) / Fold change /veh CCDC152 (11743942_at) / RFU ECM1 (11717891_a_at) / Fold change /veh ECM1 (11717891_a_at) / RFU IL23R (11748794_a_at) / Fold change /veh IL23R (11748794_a_at) / RFU TNFAIP8L3 (11732012_x_at) / Fold change /veh TNFAIP8L3 (11732012_x_at) / RFU MBOAT4 (11741988_at) / Fold change /veh MBOAT4 (11741988_at) / RFU 11764193_at / Fold change /veh 11764193_at / RFU TMEM53 (11763286_at) / Fold change /veh TMEM53 (11763286_at) / RFU MAGEB2 (11727129_at) / Fold change /veh MAGEB2 (11727129_at) / RFU TMEM200A (11744735_a_at) / Fold change /veh TMEM200A (11744735_a_at) / RFU CCDC152 (11751479_a_at) / Fold change /veh CCDC152 (11751479_a_at) / RFU FAM211A (11726209_a_at) / Fold change /veh FAM211A (11726209_a_at) / RFU RGS16 (11746705_a_at) / Fold change /veh RGS16 (11746705_a_at) / RFU VCAN (11755009_s_at) / Fold change /veh VCAN (11755009_s_at) / RFU RHOB (11743442_s_at) / Fold change /veh RHOB (11743442_s_at) / RFU RGS16 (11720943_a_at) / Fold change /veh RGS16 (11720943_a_at) / RFU RGS16 (11720944_at) / Fold change /veh RGS16 (11720944_at) / RFU, VPS4B / Fold change vs veh, VPS4B / RFU, CREB1 / Fold change vs veh, CREB1 / RFU, DNAJC13 / Fold change vs veh, DNAJC13 / RFU, GNAQ / Fold change vs veh, GNAQ / RFU, CDK5R1 / Fold change vs veh, CDK5R1 / RFU, ZRANB3 / Fold change vs veh, ZRANB3 / RFU, CUL4A / Fold change vs veh, CUL4A / RFU, CCNY / Fold change vs veh, CCNY / RFU, UFL1 / Fold change vs veh, UFL1 / RFU, COG3 / Fold change vs veh, COG3 / RFU, DIAPH2 / Fold change vs veh, DIAPH2 / RFU, SKA2 / Fold change vs veh, SKA2 / RFU, AFF3 / Fold change vs veh, AFF3 / RFU, LMF1 / Fold change vs veh, LMF1 / RFU, IPO11 / Fold change vs veh, IPO11 / RFU, DFFB / Fold change vs veh, DFFB / RFU, FOXP1 / Fold change vs veh, FOXP1 / RFU, CARD8 / Fold change vs veh, CARD8 / RFU, STRN3 / Fold change vs veh, STRN3 / RFU, ADK / Fold change vs veh, ADK / RFU, RASSF2 / Fold change vs veh, RASSF2 / RFU, WIPF1 / Fold change vs veh, WIPF1 / RFU, LARP1B / Fold change vs veh, LARP1B / RFU, RASA1 / Fold change vs veh, RASA1 / RFU, RB1 / Fold change vs veh, RB1 / RFU, PPFIA1 / Fold change vs veh, PPFIA1 / RFU, MAT2A / Fold change vs veh, MAT2A / RFU, CCT5 / Fold change vs veh, CCT5 / RFU, WDR92 / Fold change vs veh, WDR92 / RFU, CUX1 / Fold change vs veh, CUX1 / RFU, TTC7A / Fold change vs veh, TTC7A / RFU, TMEM135 / Fold change vs veh, TMEM135 / RFU, DEPTOR / Fold change vs veh, DEPTOR / RFU, CPM / Fold change vs veh, CPM / RFU, DNAJB6 / Fold change vs veh, DNAJB6 / RFU, CACNA2D3 / Fold change vs veh, CACNA2D3 / RFU, DTX4 / Fold change vs veh, DTX4 / RFU, TFCP2 / Fold change vs veh, TFCP2 / RFU, GMCL1 /// GMCL1P1 / Fold change vs veh, GMCL1 /// GMCL1P1 / RFU, AEBP2 / Fold change vs veh, AEBP2 / RFU, SNHG1 /// SNORD22 /// SNORD25 /// SNORD26 /// SNORD27 /// SNORD28 /// SNORD29 /// SNORD31 / Fold change vs veh, SNHG1 /// SNORD22 /// SNORD25 /// SNORD26 /// SNORD27 /// SNORD28 /// SNORD29 /// SNORD31 / Fold change (Aza/veh), C12orf56 (ProbeSet 11735607_a_at) / Fold change (ACY-1035/veh), C12orf56 (ProbeSet 11735607_a_at) / Fold change (Aza/veh), FGFR1OP (ProbeSet 11751329_s_at) / Fold change (ACY-1035/veh), FGFR1OP (ProbeSet 11751329_s_at) / Fold change (Aza/veh), VPS36 (ProbeSet 11739960_a_at) / Fold change (ACY-1035/veh), VPS36 (ProbeSet 11739960_a_at) / RFU SYPL1 (11715823_x_at) / Fold change /veh SYPL1 (11715823_x_at) / RFU IGFBP7 (11715501_s_at) / Fold change /veh IGFBP7 (11715501_s_at) / RFU REEP3 (11722064_at) / Fold change /veh REEP3 (11722064_at) / RFU IGLL1 (11728026_x_at) / Fold change /veh IGLL1 (11728026_x_at): dose or concentration left out as unconfirmed
Details: ProbeSet 11734782_x_at; LIST D

Nc1ccc(-c2cccs2)cc1NC(=O)c1ccc2c(c1)cc(C1CC1)n2CCN1CCOCC1 [ACY-1035]
RFU, WDR92: 63.28 RFU
